# In US20230002334A1, “TRPM8 MODULATORS” (Givaudan SA, priority 2019, published 2023):
# Target: T1, hTRPM8 (Homo sapiens, UniProt Q7Z2W7)
# T1 construct: expressed in transfected cells
# Assay: Assay on TRPM8 modulators: calcium imaging (Fluo-4, Flexstation) in HEK293 cell line stably expressing hTRPM8
# Assay type: cell-based
# Settings: HEK293 cells stably expressing hTRPM8, calcium influx, sigmoidal dose-response fit; read-out: EC50
# How it was run: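 Calcium influx monitored by Fluo-4 (2.7 μM with […] probenecid, 1 h 37 °C loading) in HEK293 cells stably expressing hTRPM8, in HEPES buffer pH 7.4 with 2 mM CaCl2. Fluorescence read 15 s before and 105 s after adding serial compound dilutions. Maximal activation relative to solvent and 31.6 μM menthol; EC50 from sigmoidal fit.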
# T1 sequence (Q7Z2W7 whole entry): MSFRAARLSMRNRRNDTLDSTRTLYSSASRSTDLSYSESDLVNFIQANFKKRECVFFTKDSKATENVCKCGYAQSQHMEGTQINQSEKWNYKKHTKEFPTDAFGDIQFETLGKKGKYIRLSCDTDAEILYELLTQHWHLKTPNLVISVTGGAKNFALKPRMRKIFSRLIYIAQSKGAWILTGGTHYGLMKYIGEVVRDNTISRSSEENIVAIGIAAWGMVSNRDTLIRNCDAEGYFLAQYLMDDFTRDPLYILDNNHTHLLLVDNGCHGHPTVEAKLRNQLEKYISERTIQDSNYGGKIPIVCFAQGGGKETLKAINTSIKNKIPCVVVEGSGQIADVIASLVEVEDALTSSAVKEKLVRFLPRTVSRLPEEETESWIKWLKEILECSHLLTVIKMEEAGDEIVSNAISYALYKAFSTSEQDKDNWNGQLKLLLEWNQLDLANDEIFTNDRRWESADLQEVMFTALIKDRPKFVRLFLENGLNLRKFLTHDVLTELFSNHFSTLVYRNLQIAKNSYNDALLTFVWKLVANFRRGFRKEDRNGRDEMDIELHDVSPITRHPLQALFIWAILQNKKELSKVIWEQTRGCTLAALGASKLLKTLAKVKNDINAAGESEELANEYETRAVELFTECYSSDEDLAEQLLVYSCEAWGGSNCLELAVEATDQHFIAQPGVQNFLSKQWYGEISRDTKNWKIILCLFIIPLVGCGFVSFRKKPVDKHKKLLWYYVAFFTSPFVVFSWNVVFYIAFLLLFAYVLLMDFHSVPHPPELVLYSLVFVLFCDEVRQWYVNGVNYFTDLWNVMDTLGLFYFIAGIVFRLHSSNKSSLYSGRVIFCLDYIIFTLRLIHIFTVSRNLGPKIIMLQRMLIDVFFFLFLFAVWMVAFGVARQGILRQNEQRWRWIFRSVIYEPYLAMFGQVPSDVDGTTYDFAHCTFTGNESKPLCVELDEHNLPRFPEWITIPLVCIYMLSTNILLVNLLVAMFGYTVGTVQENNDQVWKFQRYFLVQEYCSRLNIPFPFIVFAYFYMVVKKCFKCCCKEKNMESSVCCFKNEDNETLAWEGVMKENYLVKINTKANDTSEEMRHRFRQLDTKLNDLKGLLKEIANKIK
row,EC50 [nM],SMILES
1,300 to 1000,"Cc1ccc(Cl)cc1[C@H]1C[C@@H]2[C@@H]([C@@H](C)C1)N(C(C)C)OC2(C)C (racemic) [Compound 106, rac-(3aR,5R,7S,7aR)-5-(5-chloro-2-methylphenyl)-1-isopropyl-3,3,7-trimethyloctahydrobenzo[c]isoxazole]"
2,< 50,"CCN1OC(C)(C)[C@@H]2C[C@](C)(c3cc(C#N)ccc3C)C[C@H](C)[C@H]21 (racemic) [Compound 125, rac-3-((3aR,5R,7S,7aR)-1-ethyl-3,3,5,7-tetramethyloctahydrobenzo[c]isoxazol-5-yl)-4-methylbenzonitrile]"
3,300 to 1000,"Cc1cc(C)cc([C@@]2(C)C[C@@H]3[C@@H]([C@@H](C)C2)N(C(C)C)OC3(C)C)c1 (racemic) [Compound 88, rac-(3aR,5R,7S,7aR)-5-(3,5-dimethylphenyl)-1-isopropyl-3,3,5,7-tetramethyloctahydrobenzo[c]isoxazole]"
4,50 to 300,"Cc1c(Cl)cccc1[C@H]1C[C@@H]2[C@@H]([C@@H](C)C1)N(C(C)C)OC2(C)C (racemic) [Compound 90, rac-(3aR,5R,7S,7aR)-5-(3-chloro-2-methylphenyl)-1-isopropyl-3,3,7-trimethyloctahydrobenzo[c]isoxazole]"
5,300 to 1000,"Cc1ccccc1[C@H]1C[C@@H]2[C@@H]([C@@H](C)C1)N(C)OC2(C)C (racemic) [Compound 51, rac-(3aR,5R,7S,7aR)-1,3,3,7-tetramethyl-5-(o-tolyl)octahydrobenzo[c]isoxazole]"
6,1000 to 35000,"COc1ccc([C@]2(C)C[C@@H](C)[C@@H]3[C@@H](C2)C(C)(C)ON3C)cc1 (racemic) [Compound 36, rac-(3aR,5R,7R,7aR)-5-(4-methoxyphenyl)-1,3,3,5,7-pentamethyloctahydrobenzo[c]isoxazole]"
7,50 to 300,"Cc1ccc([C@@]2(C)C[C@@H]3[C@@H]([C@@H](C)C2)N(C)OC3(C)C)cc1C#N (racemic) [Compound 123, rac-2-methyl-5-((3aR,5R,7S,7aR)-1,3,3,5,7-pentamethyloctahydrobenzo[c]isoxazol-5-yl)benzonitrile]"
8,50 to 300,"CC1CC(C)(c2ccccc2C#N)CC2C1N(C)OC2(C)C (stereo not drawn) [Compound 14, 2-(1,3,3,5,7-pentamethyloctahydrobenzo[c]isoxazol-5-yl)benzonitrile]"
9,50 to 300,"C[C@H]1C[C@@](C)(c2ccc(F)c(F)c2)C[C@@H]2[C@@H]1N(C)OC2(C)C (racemic) [Compound 84, rac-(3aR,5R,7S,7aR)-5-(3,4-difluorophenyl)-1,3,3,5,7-pentamethyloctahydrobenzo[c]isoxazole]"
10,50 to 300,"CC(C)N1OC(C)(C)[C@@H]2C[C@](C)(c3ccccc3)C[C@H](C)[C@H]21 (racemic) [Compound 60, rac-(3aR,5R,7S,7aR)-1-isopropyl-3,3,5,7-tetramethyl-5-phenyloctahydrobenzo[c]isoxazole]"
11,1000 to 35000,"Cc1cc(F)ccc1[C@]1(C)C[C@@H](C)[C@@H]2[C@@H](C1)C(C)(C)ON2C (racemic) [Compound 35, rac-(3aR,5R,7R,7aR)-5-(4-fluoro-2-methylphenyl)-1,3,3,5,7-pentamethyloctahydrobenzo[c]isoxazole]"
12,< 50,"COc1ccc(C#N)cc1[C@@]1(C)C[C@@H]2[C@@H]([C@@H](C)C1)N(C)OC2(C)C (racemic) [Compound 133, rac-4-methoxy-3-((3aR,5R,7S,7aR)-1,3,3,5,7-pentamethyloctahydrobenzo[c]isoxazol-5-yl)benzonitrile]"
13,1000 to 35000,"COc1ccc([C@@]2(C)C[C@@H]3[C@@H]([C@@H](C)C2)N(C(C)C)OC3(C)C)cc1 (racemic) [Compound 67, rac-(3aR,5R,7S,7aR)-1-isopropyl-5-(4-methoxyphenyl)-3,3,5,7-tetramethyloctahydrobenzo[c]isoxazole]"
14,50 to 300,"COC(=O)c1ccc(C)c([C@@]2(C)C[C@@H]3[C@@H]([C@@H](C)C2)N(C)OC3(C)C)c1 (racemic) [Compound 137, rac-methyl 4-methyl-3-((3aR,5R,7S,7aR)-1,3,3,5,7-pentamethyloctahydrobenzo[c]isoxazol-5-yl)benzoate]"
15,300 to 1000,"CCN1OC(C)(C)[C@@H]2C[C@](C)(c3ccccc3C)C[C@@H](C)[C@H]21 (racemic) [Compound 33, rac-(3aR,5R,7R,7aR)-1-ethyl-3,3,5,7-tetramethyl-5-(o-tolyl)octahydrobenzo[c]isoxazole]"
16,300 to 1000,"Cc1cc(C)cc([C@@]2(C)C[C@@H]3[C@@H]([C@@H](C)C2)N(C)OC3(C)C)c1 (racemic) [Compound 87, rac-(3aR,5R,7S,7aR)-5-(3,5-dimethylphenyl)-1,3,3,5,7-pentamethyloctahydrobenzo[c]isoxazole]"
17,50 to 300,"Cc1ccc([C@@]2(C)C[C@@H]3[C@@H]([C@@H](C)C2)N(C)OC3(C)C)c(C)c1 (racemic) [Compound 71, rac-(3aR,5R,7S,7aR)-5-(2,4-dimethylphenyl)-1,3,3,5,7-pentamethyloctahydrobenzo[c]isoxazole]"
18,50 to 300,"CC(C)=CC[C@@]1(C)C[C@@H]2[C@@H]([C@@H](C)C1)N(C(C)C)OC2(C)C (racemic) [Compound 58, rac-(3aR,5R,7S,7aR)-1-isopropyl-3,3,5,7-tetramethyl-5-(3-methylbut-2-en-1-yl)octahydrobenzo[c]isoxazole]"
19,300 to 1000,"Cc1ccc(C)c([C@H]2C[C@@H]3[C@@H]([C@@H](C)C2)N(C)OC3(C)C)c1 (racemic) [Compound 75, rac-(3aR,5R,7S,7aR)-5-(2,5-dimethylphenyl)-1,3,3,7-tetramethyloctahydrobenzo[c]isoxazole]"
20,1000 to 35000,"CSc1ccccc1[C@]1(C)C[C@@H](C)[C@@H]2[C@@H](C1)C(C)(C)ON2C (racemic) [Compound 31, rac-(3aR,5R,7R,7aR)-1,3,3,5,7-pentamethyl-5-(2-(methylthio)phenyl)octahydrobenzo[c]isoxazole]"
21,1000 to 35000,"CC(C)N1OC(C)(C)[C@@H]2C[C@H](c3ccc(C(C)(C)C)cc3)C[C@H](C)[C@H]21 (racemic) [Compound 97, rac-(3aR,5R,7S,7aR)-5-(4-(tert-butyl)phenyl)-1-isopropyl-3,3,7-trimethyloctahydrobenzo[c]isoxazole]"

row,SMILES,EC50 [nM]
1,"CC[C@@H]1C[C@H](CC)[C@@H]2[C@@H](C1)C(C)(C)ON2C(C)C (racemic) [Compound 111, rac-(3aR,5R,7S,7aR)-5,7-diethyl-1-isopropyl-3,3-dimethyloctahydrobenzo[c]isoxazole]",300 to 1000
2,"CC1CC(C)C2C(C1)C(C)(C)ON2C(C)C (stereo not drawn) [Compound 12, 1-isopropyl-3,3,5,7-tetramethyloctahydrobenzo[c]isoxazole]",300 to 1000
3,"COc1cccc([C@@]2(C)C[C@@H]3[C@@H]([C@@H](C)C2)N(C(C)C)OC3(C)C)n1 (racemic) [Compound 68, rac-(3aR,5R,7S,7aR)-1-isopropyl-5-(6-methoxypyridin-2-yl)-3,3,5,7-tetramethyloctahydrobenzo[c]isoxazole]",300 to 1000
4,"Cc1ccncc1C1(C)CC(C)C2C(C1)C(C)(C)ON2C (stereo not drawn) [Compound 2, 1,3,3,5,7-pentamethyl-5-(4-methylpyridin-3-yl)octahydrobenzo[c]isoxazole]",300 to 1000
5,"CCC[C@@H]1CC[C@@H]2[C@@H](C1)C(C)(C)ON2CC (racemic) [Compound 25, rac-(3aR,5R,7aR)-1-ethyl-3,3-dimethyl-5-propyloctahydrobenzo[c]isoxazole]",300 to 1000
6,"C[C@H]1C[C@@](C)(c2ccc(Cl)c(C#N)c2)C[C@@H]2[C@@H]1N(C)OC2(C)C (racemic) [Compound 121, rac-2-chloro-5-((3aR,5R,7S,7aR)-1,3,3,5,7-pentamethyloctahydrobenzo[c]isoxazol-5-yl)benzonitrile]",< 50
7,"COc1cccc(C2(C)CC(C)C3C(C2)C(C)(C)ON3C)n1 (stereo not drawn) [Compound 18, 5-(6-methoxypyridin-2-yl)-1,3,3,5,7-pentamethyloctahydrobenzo[c]isoxazole]",300 to 1000
8,"CCC[C@@]1(C)C[C@@H]2[C@@H]([C@@H](C)C1)N(C)OC2(C)C (racemic) [Compound 49, rac-(3aR,5R,7S,7aR)-1,3,3,5,7-pentamethyl-5-propyloctahydrobenzo[c]isoxazole]",300 to 1000
9,"CCC1(C)CC(C)C2C(C1)C(C)(C)ON2C (stereo not drawn) [Compound 20, 5-ethyl-1,3,3,5,7-pentamethyloctahydrobenzo[c]isoxazole]",1000 to 35000

# System: panelists (mouth, mucosa)
# Assay: Sensory studies in aqueous solution (trained panel, swilling in the mouth)
# Assay type: in vivo, human
# Settings: 40 ppm in aqueous solution, 20 mL swilled 60 seconds
# Method: The compounds as listed below in Table 2 were dissolved at a concenteration of 1 wt-% in propylene glycol. These solutions were then dispensed in appropriate quantities into deionized water containing 0.5 wt-% Poloxamer 407 (which is a hydrophilic non-ionic surfactant, e.g., commercially available from SigmaAldrich) and 0.25 wt-% Cremaphor® RH40 (obtained from BASF) as solubilizer, to obtain the desired final concentration of 40 ppm (parts per milion) of the respective compound.
# A trained group of panelists evaluated the aqueous solutions containing test compound by swilling 20 mL of the solution in the mouth for 60 seconds, followed by spitting, without rinsing the mouth afterwards for the duration of the evaluation. Panelists evaluated and recorded the cooling performance as well as other sensorial and organoleptic attributes at different timepoints over a period of two hours. Cooling performance was rated on a scale from 0 to 10 with 0 being no effect and 10 being freezing. Scores were averaged for all panelists and the cooling intensity qualified as “N” for “none” (score of 0), “L” for “low” (score above 0, up to 1), “M” for “medium” (score above 1, up to 4), “S” for “strong” (score above 4, up to 8) and “E” for “extreme” (score above 8), which are provided in Table 2. […] All tasted samples developed cooling sensation starting during swilling (almost immediately upon contact with the mucosa) and before expectorating.
row,SMILES,time of max cooling [min]
1,"CC[C@@H]1C[C@H](CC)[C@@H]2[C@@H](C1)C(C)(C)ON2C(C)C (racemic) [Compound 111, rac-(3aR,5R,7S,7aR)-5,7-diethyl-1-isopropyl-3,3-dimethyloctahydrobenzo[c]isoxazole]",10
2,"CC1CC(C)C2C(C1)C(C)(C)ON2C(C)C (stereo not drawn) [Compound 12, 1-isopropyl-3,3,5,7-tetramethyloctahydrobenzo[c]isoxazole]",5

# Same assay, conditions: 40 ppm in aqueous solution, 20 mL swilled 60 seconds; averaged panel score on scale 0 to 10
row,SMILES,Max. cooling
1,"CC[C@@H]1C[C@H](CC)[C@@H]2[C@@H](C1)C(C)(C)ON2C(C)C (racemic) [Compound 111, rac-(3aR,5R,7S,7aR)-5,7-diethyl-1-isopropyl-3,3-dimethyloctahydrobenzo[c]isoxazole]","M (“M” for “medium” (score above 1, up to 4))"
2,"CC1CC(C)C2C(C1)C(C)(C)ON2C(C)C (stereo not drawn) [Compound 12, 1-isopropyl-3,3,5,7-tetramethyloctahydrobenzo[c]isoxazole]","M (“M” for “medium” (score above 1, up to 4))"

# Same assay, conditions: 40 ppm in aqueous solution, 1 h after swilling; averaged panel score on scale 0 to 10
row,SMILES,Cooling after 1 h
1,"CC[C@@H]1C[C@H](CC)[C@@H]2[C@@H](C1)C(C)(C)ON2C(C)C (racemic) [Compound 111, rac-(3aR,5R,7S,7aR)-5,7-diethyl-1-isopropyl-3,3-dimethyloctahydrobenzo[c]isoxazole]","L (“L” for “low” (score above 0, up to 1))"
2,"CC1CC(C)C2C(C1)C(C)(C)ON2C(C)C (stereo not drawn) [Compound 12, 1-isopropyl-3,3,5,7-tetramethyloctahydrobenzo[c]isoxazole]","L (“L” for “low” (score above 0, up to 1))"
